Reference: patent US8716263B2, “Synthesis of purine nucleosides” (Gilead Pharmasset LLC, priority 2008, dated 2014)
Read-outs that look alike come from different tables or passages of the source.

Tested on: HCV replicon RNA-containing Huh7 cells (clone A cells)
Assay: HCV replicon assay
Format: cell-based
Details: read-out: CloneA EC90
Protocol: HCV replicon assay. HCV replicon RNA-containing Huh7 cells (clone A cells; Apath, LLC, St. Louis, Mo.) were kept at exponential growth in Dulbecco's modified Eagle's medium (high glucose) containing 10% fetal bovine serum, 4 mM L-glutamine and 1 mM sodium pyruvate, 1×nonessential amino acids, and G418 (1,000 μg/m1). Antiviral assays were performed in the same medium without G418. Cells were seeded in a 96-well plate at 1,500 cells per well, and test compounds were added immediately after seeding. Incubation time 4 days. At the end of the incubation step, total cellular RNA was isolated (RNeasy 96 kit; Qiagen). Replicon RNA and an internal control (TaqMan rRNA control reagents; Applied Biosystems) were amplified in a single-step multiplex RT-PCR protocol as recommended by the manufacturer. The HCV primers and probe were designed with Primer Express software (Applied Biosystems) and covered highly conserved 5′-untranslated region (UTR) sequences (sense, 5′-AGCCATGGCGTTAGTA(T)GAGTGT-3′ (SEQ ID NO: 1), and antisense, 5′-TTCCGCAGACCACTATGG-3′ (SEQ ID NO: 2); probe, 5′-FAM-[…]-TAMRA-3′ SEQ ID NO: 3)).
To express the antiviral effectiveness of a compound, the threshold RT-PCR cycle of the test compound was subtracted from the average threshold RT-PCR cycle of the no-drug control (ΔCtHCV). A ΔCt of 3.3 equals a 1-log 10 reduction (equal to the 90% effective concentration [EC90]) in replicon RNA levels. The cytotoxicity of the test compound could also be expressed by calculating the ΔCtrRNA values. The ΔΔCt specificity parameter could then be introduced (ΔCtHCV−ΔCtrRNA) in which the levels of HCV RNA are normalized for the rRNA levels and calibrated against the no-drug control.

[1] = clone A Huh7 replicon cells, incubation time 4 days, replicon RNA by RT-PCR, ΔCt of 3.3 = 1-log 10 reduction = EC90

Row | Structure (SMILES) | EC90 [1] [µM] | EC90 (Hepatitis C virus, Huh-7, 96 h) [µM] | further results
1 | COC(=O)[C@H](C)NP(=O)(OC[C@H]1O[C@@H](n2cnc3c(N4CCC4)nc(N)nc32)[C@](C)(F)[C@@H]1O)Oc1ccccc1 (stereo partly drawn) [Compound 12] | 0.07 |  | 
2 | COc1nc(N)nc2c1ncn2[C@@H]1O[C@@H]2CO[P@](=O)(OC3CCC3)O[C@H]2[C@@]1(C)F [Compound 23, 6-Methoxy-9-((2R,4aR,6R,7R,7aR)-7-fluoro-2-cyclobutoxy-7-methyl-2-oxo-tetrahydro-2λ^5-furo[3,2-d][1,3,2]dioxaphosphinin-6-yl)-9H-purin-2-ylamine] |  |  | EC90 (Hepatitis C virus, Huh-7, 96 h, clone A Huh7 replicon cells, incubation time 4 days, replicon RNA by RT-PCR, ΔCt of 3.3 = 1-log 10 reduction = EC90): 0.13 µM
3 | COP1(=O)OC[C@H]2O[C@@H](n3cnc4c(N5CCC5)nc(N)nc43)[C@](C)(F)[C@@H]2O1 (stereo partly drawn) [Compound 15, 6-Azetidin-1-yl-9-((4aR,6R,7R,7aR)-7-fluoro-2-methoxy-7-methyl-2-oxo-tetrahydrofuro[3,2-d][1,3,2]dioxaphosphinin-6-yl)-9H-purin-2-ylamine] |  | 0.71 | 
4 | C[C@H](NP(=O)(OC[C@H]1O[C@@H](n2cnc3c(O)nc(N)nc32)[C@](C)(F)[C@@H]1O)Oc1ccccc1)C(=O)OC1CCCC1 (stereo partly drawn) [Compound 14, (2S)-cyclopentyl 2-((((2R,3R,4R,5R)-5-(2-amino-6-hydroxy-9H-purin-9-yl)-4-fluoro-3-hydroxy-4-methyltetrahydrofuran-2-yl)methoxy)(phenoxy)phosphorylamino)propanoate] |  | 0.13 | 
5 | COc1nc(N)nc2c1ncn2[C@@H]1O[C@@H]2CO[P@](=O)(OC3CCCC3)O[C@H]2[C@@]1(C)F [Compound 24, 6-Methoxy-9-((2R,4aR,6R,7R,7aR)-7-fluoro-2-cyclopentoxy-7-methyl-2-oxo-tetrahydro-2μ^5-furo[3,2-d][1,3,2]dioxaphosphinin-6-yl)-9H-purin-2-ylamine] | 0.037 |  | 
6 | COc1nc(N)nc2c1ncn2[C@@H]1O[C@H](COP(=O)(N[C@@H](C)C(=O)OC(C)C)Oc2ccccc2)[C@@H](O)[C@@]1(C)F (stereo partly drawn) [Compound 11, (2S)-isopropyl 2-((((2R,3R,4R,5R)-5-(2-amino-6-methoxy-9H-purin-9-yl)-4-fluoro-3-hydroxy-4-methyltetrahydrofuran-2-yl)methoxy) (phenoxy)phosphorylamino)propanoate] |  | 0.02 | 
